Reference: patent US20230158049A1, “COMPOSITIONS AND METHODS FOR TREATING VIRUSES” (University of Virginia Patent Foundation, priority 2020, published 2023)

System: SARS-CoV-2
Conditions: […]

C[C@H]1c2cccc(O)c2C(=O)C2=C(O)[C@]3(O)C(=O)C(C(N)=O)=C(O)[C@@H](N(C)C)[C@@H]3[C@@H](O)[C@@H]21 [doxycycline]
time to symptom improvement (doxycycline 100 mg twice daily with osimertinib): ≤ 1 week
time to improvement in all symptoms (doxycycline 200 mg then 100 mg daily for 5 days): ≤ 5 days
